In article PMC7153278, “Discovery of Membrane-Bound Pyrophosphatase Inhibitors Derived from an Isoxazole Fragment” (ACS Medicinal Chemistry Letters, 2020):

Test: Colloidal aggregation under TmPPase assay conditions (nephelometry)
Format: physicochemical
Protocol: Aggregation data for 5, 12k and 12l (Figure S1)
Potential colloidal aggregation in the TmPPase model system was studied at five concentrations (50 µM, 25 µM, 10 µM, 5 µM, and 1 µM). The original assay conditions were simulated, and the light scattering of potential aggregates in the mixture was studied by nephelometric methods using Nepheloskan Ascent® (Labsystems, Finland). Aggregation of the blank and compounds 5, 12k and 12l were measured as triplicates from one independent experiment at three different voltages (300 V, 400 V and 500 V) at room temperature.
5 µM and 1 µM concentrations the obtained values were close to those observed by the blank, thereby […]
Figure S1. Aggregation data for compounds 5, 12k and 12l. The data, measured in relative nephelometric units (RNU), is shown as the mean ± SD and normalized to the blank.
(1 picture or pasted object on this page, not shown here)
Experimental procedures and characterization data
Commercial analogues were retrieved by screening the ZINC12 database1 (clean drug-like subset; downloaded on 27.04.2016) using a KNIME2 workflow connected to the RDKit3 nodes. The SAR analyses and docking studies (data not shown) underlying this work were conducted using the Schrödinger molecular modeling platform (Canvas and Glide modules, respectively)4 .
Compounds 1–7, 13–20 and 24 were obtained from commercial suppliers. Supporting Information, Table S1 summarizes the compounds tested. Compound purity was >95% as determined by LC-MS and characterized by HRMS. For all commercial compounds after the initial screen, purity was tested independently from the vendor specification (a few compounds of lower purity are reported only in Supporting Information). To evaluate potential aggregation of samples in the TmPPase based assay, aggregate formation in the assay conditions was studied at five concentrations (50 μM, 25 μM, 10 μM, 5 μM, and 1 μM) for compounds 5, 12k and 12l (Figure S1).
All chemicals used were commercially available. Reactions using anhydrous conditions were conducted in oven-dried (130 °C, >24 h) glassware, purged with argon prior to use. Microwave reactions were performed using a Biotage Initiator+ instrument (Uppsala, Sweden). The progress of the reactions was monitored by thin-layer chromatography on silica gel 60-F254 aluminum plates and visualized by using a dual short/long wave (254/366 nm) UV lamp. The combined organic solutions from extractions were dried over anhydrous Na2SO4, filtered and concentrated with a rotary evaporator at reduced pressure. Flash SiO2 column chromatography was performed with automated high performance flash chromatography, Biotage Isolera™ Spektra Systems with ACI™ and Assist (ISO-1SW Isolera One) equipped with a variable UV-VIS (200–800 nm) photodiode array (Uppsala, Sweden) using SNAP KP-SIL/Ultra 10 g or 25 g cartridges and the indicated mobile phase gradient.
The reactions were not optimized and all the yields are given for purified products.
Characterization of the synthesized products were done by NMR and MS analysis. 1H and 13C NMR spectra were acquired at 298 K on a Bruker Ascend 400 MHz – Avance III HD NMR spectrometer (Bruker Corporation, Billerica, MA, USA). Chemical shifts (δ) are reported in parts per million (ppm) relative to the residual solvent signals: CDCl3 7.26 and 77.16 ppm, CD3OD 3.31 and 49.00 ppm, DMSO-d6 2.50 and 39.52 ppm for 1H and 13C NMR, respectively. […] High resolution mass (HRMS-ESI) data was reported for the calculated and experimentally […]

CC(C)(C)c1cc(-c2cc(C(=O)Oc3ccccc3Br)no2)cc(C(C)(C)C)c1 [Compound 12l]
aggregation (light scattering) (at 10 µM, 5 µM and 1 µM): only minor/no detectable aggregation | aggregation (light scattering) (at 50 µM and 25 µM): showed aggregate formation
